12 molecules from US20250032623A1, “HETEROBIFUNCTIONAL COMPOUNDS AND THEIR USE IN TREATING DISEASE” (HALDA THERAPEUTICS OPCO, INC., priority 2021, published 2025) can be followed below.

Structures are written as SMILES. Where two headings read alike, the source gives them in different places.

The target of one assay is T1, EGFR (Homo sapiens, UniProt P00533).
T1 construct: purchased
In words: KdELECT binding assay, EGFR. On the procedure:
Exemplary compounds were tested for ability to bind to EGFR.
Compounds were tested using a KdELECT assay. Kinase-tagged T7 phage strains were prepared in an E. coli host derived from the BL21 strain. E. coli were grown to log-phase and infected with T7 phage and incubated with shaking at 32° C. until lysis. The lysates were centrifuged and filtered to remove cell debris. The remaining kinases were produced in HEK-293 cells and subsequently tagged with DNA for qPCR detection. Streptavidin-coated magnetic beads were treated with biotinylated small molecule ligands for 30 minutes at room temperature to generate affinity resins for kinase assays. The liganded beads were blocked with excess biotin and washed with blocking buffer (SeaBlock (Pierce), 1% BSA, 0.05% Tween 20, 1 mM DTT) to remove unbound ligand and to reduce non-specific binding. Binding reactions were assembled by combining kinases, liganded affinity beads, and test compounds in 1× binding buffer (20% SeaBlock, 0.17×PBS, 0.05% Tween 20, 6 mM DTT). Test compounds were prepared as 111× stocks in 100% DMSO. Kd values were determined using an 11-point 3-fold compound dilution series with three DMSO control points. All compounds for Kd measurements are distributed by acoustic transfer (non-contact dispensing) in 100% DMSO. The compounds were then diluted directly into the assays such that the final concentration of DMSO was 0.9%. All reactions performed in polypropylene 384-well plate. Each was a final volume of 0.02 mL. The assay plates were incubated at room temperature with shaking for 1 hour and the affinity beads were washed with wash buffer (1× PBS, 0.05% Tween 20). The beads were then re-suspended in elution buffer (1× PBS, 0.05% Tween 20, 0.5 μM nonbiotinylated affinity ligand) and incubated at room temperature with shaking for 30 minutes. The kinase concentration in the eluates was measured by qPCR.

The test system of a further assay is HEK293 cells. In words: Cellular growth inhibition assay (CellTiter-Glo), HEK293 cells. The conditions noted are these: three days compound treatment, CellTiter-Glo 2.0, read-out: CTG HEK293 GI50. In kind it is cell-based. On the procedure:
(§1) Exemplary compounds were tested for ability to inhibit the proliferation of HEK293 cells or HeLa cells.
(§2) HEK293 and HeLa cells were cultured in DMEM medium supplemented with 10% fetal bovine serum and 1% Penn/Strep. Cells were seeded in white 384-well plates at 500 cells/well in […] complete medium. Following seeding, plates were spun at 300×g for three minutes and cultured at 37° C. with 5% CO2 in a humidified tissue culture incubator.
(§3) After 24 hours, compounds were titrated in 100% DMSO and diluted in complete cell culture medium. […] of compound/media mixture was added to cells to bring total volume in well to […]. DMSO alone was used as a negative control. P lates were then spun at 300×g for three minutes and stored at 37° C. with 5% CO2 for three days.
(§4) On Day 0 and Day 3 of compound treatment, cell viability was quantified with CellTiter-Glo 2.0 reagent (Promega). After equilibrating microplates at room temperature for 30 minutes, 25 μL CellTiter-Glo 2.0 reagent was dispensed into each well to bring total volume to […]. Plates were mixed on shaker for 2 minutes at 500 rpm, followed by a 10-minute incubation at room temperature. Following a quick spin, luminescence readings were measured with an EnVision Plate Reader. Data was normalized to DMSO treated Day 0 and Day 3 readings. A four-parameter non-linear regression curve fit was applied to dose-response data in GraphPad Prism data analysis software to determine the half maximal growth inhibitory concentration (GI50) for each compound.

The next assay relates to HeLa cells. The experiment in a line: Cellular growth inhibition assay (CellTiter-Glo), HeLa cells. The format is cell-based. The note with it: three days compound treatment, CellTiter-Glo 2.0, read-out: CTG HELA GI50. As for the experimental part: as §1, §2, §3, §4

The term Kd denotes a measure of binding affinity in units of concentration. Low readings indicate tighter binding, high ones weaker binding. By GI50 is commonly meant the concentration giving 50% growth inhibition.

T1 sequence (P00533 25-1210): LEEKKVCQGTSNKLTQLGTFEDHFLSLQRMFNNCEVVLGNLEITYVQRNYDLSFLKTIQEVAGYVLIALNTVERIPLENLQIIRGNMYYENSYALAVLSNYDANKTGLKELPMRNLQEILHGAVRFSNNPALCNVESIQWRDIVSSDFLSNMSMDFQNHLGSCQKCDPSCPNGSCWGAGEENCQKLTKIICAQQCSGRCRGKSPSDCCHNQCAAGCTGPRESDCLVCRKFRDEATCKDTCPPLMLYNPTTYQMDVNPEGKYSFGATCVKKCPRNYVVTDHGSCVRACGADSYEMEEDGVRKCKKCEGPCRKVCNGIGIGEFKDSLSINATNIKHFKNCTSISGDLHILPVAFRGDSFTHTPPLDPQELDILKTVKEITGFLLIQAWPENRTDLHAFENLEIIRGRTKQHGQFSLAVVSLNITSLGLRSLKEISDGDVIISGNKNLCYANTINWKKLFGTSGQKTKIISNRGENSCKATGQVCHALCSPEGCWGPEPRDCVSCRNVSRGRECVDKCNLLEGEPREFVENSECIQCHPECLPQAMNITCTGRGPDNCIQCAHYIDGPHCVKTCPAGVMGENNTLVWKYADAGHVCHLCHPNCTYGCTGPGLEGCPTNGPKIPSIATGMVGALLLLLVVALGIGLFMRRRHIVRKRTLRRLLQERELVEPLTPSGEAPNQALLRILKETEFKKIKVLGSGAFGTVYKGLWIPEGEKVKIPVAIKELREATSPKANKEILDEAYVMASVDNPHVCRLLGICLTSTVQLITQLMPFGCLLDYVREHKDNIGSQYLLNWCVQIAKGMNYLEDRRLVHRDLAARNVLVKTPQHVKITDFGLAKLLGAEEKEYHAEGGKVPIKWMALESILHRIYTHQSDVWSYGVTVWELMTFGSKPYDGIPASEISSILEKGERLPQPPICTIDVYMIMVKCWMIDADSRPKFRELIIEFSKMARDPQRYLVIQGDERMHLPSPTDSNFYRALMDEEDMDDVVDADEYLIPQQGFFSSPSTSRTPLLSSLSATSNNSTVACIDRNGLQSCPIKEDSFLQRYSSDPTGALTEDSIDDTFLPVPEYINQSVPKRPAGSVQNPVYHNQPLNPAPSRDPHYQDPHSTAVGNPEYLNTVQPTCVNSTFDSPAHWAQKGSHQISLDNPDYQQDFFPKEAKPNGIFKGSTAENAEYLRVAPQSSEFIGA

`C=CC(=O)N[C@@H]1CN(c2nc(Nc3cn(CCOCCOCCOCCOCCON(C)C(=O)N4N=C(c5cc(F)ccc5F)SC4(CCCN)c4ccccc4)nc3OC)c3ncn(C)c3n2)C[C@H]1F` (some centres unmarked) [Compound I-66] came in with an equilibrium dissociation constant (Kd) at EGFR of less than 0.05 µM. Regarding `CCc1cnn2c(NCc3ccc(OCCOCCOCCOCCOCCN(C)C/C=C/C(=O)N4CCN(c5nc(=O)n(-c6c(C)ccnc6C(C)C)c6nc(-c7c(O)cccc7F)c(F)cc56)[C@@H](C)C4)nc3)cc(N3CCCC[C@H]3CCO)nc12` [Compound I-76], the GI50 is greater than 5 µM with HEK293 cells (Homo sapiens, 72 h) and greater than 5 µM in the assay with HeLa cells (Homo sapiens, 72 h). Take `Cc1c(CC(=O)N(C)C)ccc(NC(=O)c2nn([C@@H]3CCCN(C(=O)/C=C/CN(C)CCOCCOCC(=O)NCCCCn4nc(-c5ccc6oc(N)nc6c5)c5c(N)ncnc54)C3)c3ncnc(N)c23)c1C` [Compound I-83, 4-amino-1-[(3R)-1-[(E)-4-[2-1[2-[2-[4-[4-amino-3-(2-amino-1,3-benzoxazol-5-yl)pyrazolo[3,4-d]pyrimidin-1-yl]butylamino]-2-oxo-ethoxy]ethoxy]ethyl-methyl-amino]but-2-enoyl]-3-piperidyl]-N-[4-[2-(dimethylamino)-2-oxo-ethyl]-2,3-dimethyl-phenyl]pyrazolo[3,4-d]pyrimidine-3-carboxamide]: the GI50 is 1.5 to 5 µM with HEK293 cells and greater than 5 µM with HeLa cells. Take `C=CC(=O)NC1CN(c2nc(Nc3cn(CCOCCOCCOCCOCCOCCOCCNC(=O)c4ccc(Nc5ncc6c(n5)N(C5CCCC5)[C@H](CC)C(=O)N6C)c(OC)c4)nc3OC)c3ncn(C)c3n2)C[C@H]1F` (stereo partly drawn) [Compound I-114, 4-[[(7R)-8-cyclopentyl-7-ethyl-5-methyl-6-oxo-7H-pteridin-2-yl]amino]-N-[2-[2-[2-[2-[2-[2-[2-[4-[[2-[(3R)-3-fluoro-4-(prop-2-enoylamino)pyrrolidin-1-yl]-9-methyl-purin-6-yl]amino]-3-methoxy-pyrazol-1-yl]ethoxy]ethoxy]ethoxy]ethoxy]ethoxy]ethoxy]ethyl]-3-methoxy-benzamide]: the GI50 in the assay with HEK293 cells (Homo sapiens, 72 h) fell in the range of 1.5 to 5 µM. The same measure, in the same setting: in the case of `CC[C@@H]1C(=O)N(C)c2cnc(Nc3ccc(C(=O)NCCN(C)C/C=C/C(=O)Nc4cc(Nc5nccc(-c6cn(C)c7ccccc67)n5)c(OC)cc4N(C)CCN(C)C)cc3OC)nc2N1C1CCCC1` [Compound I-116, 4-[[(7R)-8-cyclopentyl-7-ethyl-5-methyl-6-oxo-7H-pteridin-2-yl]amino]-N-[2-[[(E)-4-1[2-[2-(dimethylamino)ethyl-methyl-amino]-4-methoxy-5-[[4-(1-methylindol-3-yl)pyrimidin-2-yl]amino]anilino]-4-oxo-but-2-enyl]-methyl-amino]ethyl]-3-methoxy-benzamide] it was 1.5 to 5 µM; in that of `CC[C@@H]1C(=O)N(C)c2cnc(Nc3ccc(C(=O)NCCN(C)C/C=C/C(=O)NC4CN(c5nc(Nc6cn(C)nc6OC)c6ncn(C)c6n5)C[C@H]4F)cc3OC)nc2N1C1CCCC1` (stereo partly drawn) [Compound I-119, 4-[l[(7R)-8-cyclopentyl-7-ethyl-5-methyl-6-oxo-7H-pteridin-2-yl]amino]-N—[2-[ [(E)-4-[ [(3R,4R)-4-fluoro-1-[6-[(3-methoxy-1-methyl-pyrazol-4-yl)amino]-9-methyl-purin-2-yl]pyrrolidin-3-yl]amino]-4-oxo-but-2-enyl]-methyl-amino]ethyl]-3-methoxy-benzamide], 1.5 to 5 µM. In the case of `C=CC(=O)N[C@@H]1CN(c2nc(Nc3cn(CCOCCOCCNS(=O)(=O)c4ccc(Nc5ncc(Br)c(Nc6cccc(F)c6C(N)=O)n5)cc4)nc3OC)c3ncn(C)c3n2)C[C@H]1F` [Compound I-142, 2-[[5-bromo-2-[4-[2-[2-[2-[4-[[2-1[(3R,4R)-3-fluoro-4-(prop-2-enoylamino)pyrrolidin-1-yl]-9-methyl-purin-6-yl]amino]-3-methoxy-pyrazol-1-yl]ethoxy]ethoxy]ethylsulfamoyl]anilino]pyrimidin-4-yl]amino]-6-fluoro-benzamide], the GI50 is greater than 5 µM with HEK293 cells and 1.5 to 5 µM with HeLa cells.

For the molecule `C=CC(=O)N[C@@H]1CN(c2nc(Nc3cn(CCOCCOCCOc4ccc(CNc5cc(N6CCCC[C@H]6CCO)nc6c(CC)cnn56)cn4)nc3OC)c3ncn(C)c3n2)C[C@H]1F` [Compound I-144, N-[(3R,4R)-1-[6-[[1-[2-[2-[2-[[5-1[[[3-ethyl-5-[(2S)-2-(2-hydroxyethyl)-1-piperidyl]pyrazolo[1,5-a]pyrimidin-7-yl]amino]methyl]-2-pyridyl]oxy]ethoxy]ethoxy]ethyl]-3-methoxy-pyrazol-4-yl]amino]-9-methyl-purin-2-yl]-4-fluoro-pyrrolidin-3-yl]prop-2-enamide], the GI50 in the assay on HEK293 cells and in the assay with HeLa cells was less than 0.5 µM in each case. In the case of `C=CC(=O)N[C@@H]1CN(c2nc(Nc3cn(CCOCCOCCOCCOCCOc4ccc(CNc5cc(N6CCCC[C@H]6CCO)nc6c(CC)cnn56)cn4)nc3OC)c3ncn(C)c3n2)C[C@H]1F` [Compound I-145, N-[(3R,4R)-1-[6-[[1-[2-[2-[2-[2-[2-[[5-[[[3-ethyl-5-[(2S)-2-(2-hydroxyethyl)-1-piperidyl]pyrazolo[1,5-a]pyrimidin-7-yl]amino]methyl]-2-pyridyl]oxy]ethoxy]ethoxy]ethoxy]ethoxy]ethyl]-3-methoxy-pyrazol-4-yl]amino]-9-methyl-purin-2-yl]-4-fluoro-pyrrolidin-3-yl]prop-2-enamide], the GI50 was less than 0.5 µM in the assay with HEK293 cells (Homo sapiens, 72 h) and less than 0.5 µM in the assay on HeLa cells (Homo sapiens, 72 h). As to `C=CC(=O)N[C@@H]1CN(c2nc(Nc3cn(CCCN4CCN(CCCOc5ccc(CNc6cc(N7CCCC[C@H]7CCO)nc7c(CC)cnn67)cn5)CC4)nc3OC)c3ncn(C)c3n2)C[C@H]1F` [Compound I-147, N-[(3R,4R)-1-[6-[[1-[3-[4-[3-[[5-[[[3-ethyl-5-[(2S)-2-(2-hydroxyethyl)-1-piperidyl]pyrazolo[1,5-a]pyrimidin-7-yl]amino]methyl]-2-pyridyl]oxy]propyl]piperazin-1-yl]propyl]-3-methoxy-pyrazol-4-yl]amino]-9-methyl-purin-2-yl]-4-fluoro-pyrrolidin-3-yl]prop-2-enamide], the GI50 in the assay on HEK293 cells (Homo sapiens, 72 h) was less than 0.5 µM; with HeLa cells (Homo sapiens, 72 h) it was 0.5 to 1.5 µM.

For `C=CC(=O)N[C@@H]1CN(c2nc(Nc3cn(CCCCCCCCNS(=O)(=O)c4ccc(Nc5ncc(Br)c(Nc6cccc(F)c6C(N)=O)n5)cc4)nc3OC)c3ncn(C)c3n2)C[C@H]1F` [Compound I-148, 2-[[5-bromo-2-[4-[8-[4-[[2-[(3R,4R)-3-fluoro-4-(prop-2-enoylamino)pyrrolidin-1-yl]-9-methyl-purin-6-yl]amino]-3-methoxy-pyrazol-1-yl]octylsulfamoyl]anilino]pyrimidin-4-yl]amino]-6-fluoro-benzamide], the GI50 in the assay with HEK293 cells (Homo sapiens, 72 h) is less than 0.5 µM; with HeLa cells (Homo sapiens, 72 h) it was less than 0.5 µM.

For `CC[C@@H]1C(=O)N(C)c2cnc(Nc3ccc(C(=O)NCCCN4CCN(CCCN(C)C/C=C/C(=O)Nc5cc(Nc6nccc(-c7cn(C)c8ccccc78)n6)c(OC)cc5N(C)CCN(C)C)CC4)cc3OC)nc2N1C1CCCC1` [Compound I-151, 4-[[(7R)-8-cyclopentyl-7-ethyl-5-methyl-6-oxo-7H-pteridin-2-yl]amino]-N-[3-[4-[3-[[(E)-4-[2-[2-(dimethylamino)ethyl-methyl-amino]-4-methoxy-5-[[4-(1-methylindol-3-yl)pyrimidin-2-yl]amino]anilino]-4-oxo-but-2-enyl]-methyl-amino]propyl]piperazin-1-yl]propyl]-3-methoxy-benzamide], the GI50 in the assay with HEK293 cells (Homo sapiens, 72 h) was 0.5 to 1.5 µM; in the assay on HeLa cells (Homo sapiens, 72 h), less than 0.5 µM.
